Experiment: gradient 5% acetonitrile 3 min, to 50% in 2 min, to 85% in 15 min, held 3 min, 100 µL/min
Details: column: Zorbax Extend-C18 2.1 x 50 mm; eluents: water / acetonitrile, 0.1% formic acid
Procedure, shortened: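 Pure standards were analyzed in mixtures of ~100 molecules using HPLC coupled to a quadrupole time-of-flight mass spectrometer, in both positive and negative ionization mode. Separation used a Zorbax Extend-C18 column (2.1 × 50 mm, 1.8 μm) at 100 μL/min, with water and acetonitrile each containing 0.1% formic acid. Dead and dwell volumes were 40 μL and 900 μL, and data were collected over 3 months. Retention time was read from computationally picked adduct peaks, each inspected manually.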
`CN(C)CCNC(=O)c1cc(-c2ccccc2)nc2ccccc12` gave an RP-LC retention time of 620 s. Compound `CCCCNC(=O)C1CCCN(c2nnc3ccc(Cl)cn23)C1` (configuration not stated) has an RP-LC retention time of 704 s. For `CC(C)(C)c1csc(NC(=O)C2CC(=O)N(c3n[nH]c4cccc(F)c34)C2)n1` (configuration not stated), the RP-LC retention time was 838 s. In the case of `CCOC(=O)c1[nH]c(C)c(C(=O)C(C)N(C(=O)c2cccc(OC)c2)C2CC2)c1C` (configuration not stated), the RP-LC retention time is reported as 879 s. Work on `COc1ccc(-c2cc(C(=O)N3CCC(Cc4ccccc4)CC3)no2)cc1` yielded an RP-LC retention time of 1120 s. In the case of `Cc1ccc2cc(CCC(=O)NCCCN3CCOCC3)c(=O)[nH]c2c1`, the RP-LC retention time is reported as 577 s. With `CCOC(=O)c1c(C)[nH]c(C(=O)N2CCCC(C(=O)NCc3ccc(OC)cc3)C2)c1C` (configuration not stated) the RP-LC retention time was 780 s. Work on `Cc1ccc(Sc2ccccc2N2CCNCC2)c(C)c1` yielded an RP-LC retention time of 869 s. `CCn1cc(-c2nc(-c3ccc(OC(C)C)cc3)no2)c(=O)c2cc(F)c(N3CCOCC3)cc21` gave an RP-LC retention time of 1050 s. For `CCCNC(=O)C1CCCN(c2ccc(SCC(=O)Nc3ccc4c(c3)OCO4)nn2)C1` (configuration not stated), the RP-LC retention time was 642 s. Work on `CC(C)Cc1cc(-c2nn3c(Cc4ccc(Cl)cc4)nnc3s2)n[nH]1` yielded an RP-LC retention time of 1010 s. With `Cc1ccc(-c2ccc3nn(Cc4nc(-c5cccc(C(F)(F)F)c5)no4)c(=O)n3n2)cc1` the RP-LC retention time was 1090 s. For `Cc1cc(C)cc(NC(=O)C2CCCN(c3nccnc3Sc3ccccc3)C2)c1` (configuration not stated), the RP-LC retention time was 1200 s. Compound `COc1cccc(NC(=O)Cn2nc3c(Oc4ccc(Cl)cc4)nccn3c2=O)c1` has an RP-LC retention time of 877 s. Work on `COc1cc(-c2ccc(F)cc2)nc2ccc(NS(=O)(=O)c3ccc(C#N)cc3)cc12` yielded an RP-LC retention time of 784 s. With `Cc1ccc(NC(=O)N2CCC(N3CCN(Cc4ccc(F)cc4)C(=O)C3=O)CC2)cc1` the RP-LC retention time was 754 s. Work on `Cc1ccc(NC(=O)Cn2cnc3nc(N4CCCC(C(=O)NC5CC5)C4)sc3c2=O)c(C)c1` (configuration not stated) yielded an RP-LC retention time of 708 s. `O=C(Cc1c[nH]c2ccccc12)NCC1CCN(c2cc(-c3ccncc3)[nH]n2)CC1` showed an RP-LC retention time of 595 s. With `Cc1ccc(S(=O)(=O)N2CCC(C(=O)NCCc3csc(-c4cccs4)n3)CC2)c(C)c1` the RP-LC retention time was 955 s. With `Cc1ccc(NC(=O)Cn2cnc3nc(N4CCCC(C(=O)NC5CC5)C4)sc3c2=O)cc1` (configuration not stated) the RP-LC retention time was 674 s. In the case of `CC(C)N1C(=O)c2cccnc2Sc2cc(NC(=O)c3ccccc3Cl)ccc21`, the RP-LC retention time is reported as 871 s. `COc1ccccc1C(=O)N1CCC2(C1)C(=O)N(C)c1ccccc12` (configuration not stated) gave an RP-LC retention time of 738 s. In the case of `COc1ccc2c(c1)c(CN1CCC(N3C[C@H](OC)[C@@H]3c3cccnc3)CC1)cn2C(C)C`, the RP-LC retention time is reported as 596 s. Compound `CN1CCN(CCCNC(=O)c2nccnc2NC(=O)c2ccccc2)CC1` has an RP-LC retention time of 557 s. In the case of `CC(C)CCSc1nnc2c(S(=O)(=O)N3CCN(c4ccc(F)cc4)CC3)cccn12`, the RP-LC retention time is reported as 1060 s. Compound `COc1cccc(-c2noc(Cc3nnc(-c4cccc(F)c4)o3)n2)c1OC` has an RP-LC retention time of 934 s. In the case of `CN(C)CC(=O)N1CCc2[nH]nc(-c3ccc(F)cc3)c2C1`, the RP-LC retention time is reported as 588 s. For `O=C(Cn1c2ccccc2c2ncn(Cc3nc(C4CC4)no3)c(=O)c21)NC1CCCC1`, the RP-LC retention time was 819 s. `O=C(Nc1ccccc1)N1CC(c2nc3ccccc3[nH]2)C1` showed an RP-LC retention time of 548 s. Compound `CN1C(=O)c2cc(C(=O)N3CCN(c4ccccc4)CC3)nn2CC1(C)C(=O)NC1CCCCC1` (configuration not stated) has an RP-LC retention time of 803 s. Compound `Cc1cc(C)c(NC(=O)Cn2cnc3nc(N4CCCC(C(=O)NC(C)C)C4)sc3c2=O)c(C)c1` (configuration not stated) has an RP-LC retention time of 728 s. In the case of `Cn1c(N2CCCC(C(=O)NCc3cccnc3)C2)cc(=O)n(C)c1=O` (configuration not stated), the RP-LC retention time is reported as 558 s. Compound `CCOC(=O)c1c(S(=O)(=O)N2CCC(C(=O)Nc3cccc(C)c3)CC2)c(C)n(C)c1C` has an RP-LC retention time of 875 s. `CC(C)NC(=O)c1c2c(nc3ccc(F)cc13)CCCC2` showed an RP-LC retention time of 631 s. For `COc1ccc(-c2csc3c(=O)n(CCOc4ccccc4)cnc23)cc1`, the RP-LC retention time was 1060 s. For `CC1COC2(CCN(c3nc(=O)c4cc(C(F)(F)F)cc([N+](=O)[O-])c4s3)CC2)O1` (configuration not stated), the RP-LC retention time was 1000 s. Compound `O=C(c1cc2cc(Br)ccc2[nH]1)N1CCCC1` has an RP-LC retention time of 905 s. `Cc1cc2c(c(=O)n(-c3ccc(F)cc3)c(=O)n2CC(=O)Nc2cccc(Cl)c2)n1C` gave an RP-LC retention time of 887 s. Compound `Cc1cccc(CCNC(=O)Cc2csc3nc(-c4ccc(C)c(C)c4)cn23)c1` has an RP-LC retention time of 911 s. In the case of `Cc1ccc(C)c(NC(=O)Cn2nc3nc(N4CCCC4)ccn3c2=O)c1`, the RP-LC retention time is reported as 687 s. Compound `Cn1nc(CNC(=O)C2(c3ccccc3)CC2)c2c1CCN(S(C)(=O)=O)C2` has an RP-LC retention time of 694 s. `CCC(CC)C(=O)N1CCCC(Cn2c(C3CC3)nc3cccnc32)C1` (configuration not stated) gave an RP-LC retention time of 682 s. `COc1cc(NS(=O)(=O)c2cc(-c3nc(C)cs3)n(CC(=O)N3CCCC3)c2)cc(OC)c1` gave an RP-LC retention time of 877 s. With `CN1CCN(C(=O)C2(C)CC(c3ccccc3)=NO2)CC1` (configuration not stated) the RP-LC retention time was 608 s. With `COC(=O)c1cccc(-c2nc(C3CC(=O)N(c4ccc(F)c(Cl)c4)C3)no2)c1` (configuration not stated) the RP-LC retention time was 1050 s. For `O=C(c1ccc(Cl)s1)N1CCN(S(=O)(=O)C2CC2)CC1`, the RP-LC retention time was 743 s. Work on `CN(C(=O)Cn1ccc2c(=O)n(C)c(=O)n(C)c21)c1cccc(Cl)c1` yielded an RP-LC retention time of 709 s. Compound `O=C(Cn1cnc2nc(N3CCCC(C(=O)NC4CC4)C3)sc2c1=O)Nc1ccccc1` (configuration not stated) has an RP-LC retention time of 663 s. `COCCCN(CC(=O)N1CCc2sccc2C1COc1ccc(F)cc1)C(C)=O` (configuration not stated) gave an RP-LC retention time of 802 s. With `O=C(NCCOc1ccc(F)cc1)c1ccc2nsnc2c1` the RP-LC retention time was 786 s. `COc1cccc(CNC(=O)C2(C)CCCN(S(=O)(=O)c3ccccc3C)C2)c1` (configuration not stated) gave an RP-LC retention time of 957 s. With `O=C(Cc1cccs1)NCC1CCN(C(=O)Oc2ccccc2)CC1` the RP-LC retention time was 635 s. With `Cc1nc(-c2cn(C(C)C)c3ncccc23)sc1C(=O)Nc1ccc2c(c1)OCCO2` the RP-LC retention time was 1010 s. `CCC(c1cccs1)N1C(=O)[C@H]2CN(S(=O)(=O)c3cccc(F)c3)C[C@H]2C1=O` (some centres not stated) gave an RP-LC retention time of 972 s. With `O=C(Cc1csc2nc(-c3ccccc3)cn12)NCCc1ccc(Cl)cc1` the RP-LC retention time was 806 s. `Cc1cc(C)c2c(N3CCSCC3)nc(C(=O)N3CCN(CC(C)C)CC3)nc2n1` gave an RP-LC retention time of 580 s. `Cc1ccc(NC(=O)c2cn3c(n2)CCCC3)c(F)c1` showed an RP-LC retention time of 720 s. For `COCCN1C(=O)c2cccn2CC1CNC(=O)c1ccc(Cc2c(C)noc2C)o1` (configuration not stated), the RP-LC retention time was 679 s. `COc1ccc(S(=O)(=O)N2C[C@@H]3C[C@H](NC(=O)c4cccs4)[C@H]2C3)cc1Cl` showed an RP-LC retention time of 792 s. Compound `CCOC(=O)c1c(C)[nH]c(C(=O)N2CCC(C(C)C(=O)NCc3ccc(F)cc3)CC2)c1C` (configuration not stated) has an RP-LC retention time of 805 s. `COc1ccc(C(=O)NCCc2ccc(S(N)(=O)=O)cc2)nn1` showed an RP-LC retention time of 604 s. In the case of `CCCC1(CO)CCCN1C(=O)c1nn(C)c2ccccc12` (configuration not stated), the RP-LC retention time is reported as 857 s. `COc1ccccc1NC(=O)C1CCc2nc(N3CCCCC3)ncc2C1` (configuration not stated) showed an RP-LC retention time of 811 s. Work on `Cc1sc(C)c(S(=O)(=O)NC2CCCCC2)c1-c1cc(C(F)(F)F)on1` yielded an RP-LC retention time of 1200 s. With `CN(C)CCNC(=O)C1CCN(c2cnc(N3CCSCC3)nc2)CC1` the RP-LC retention time was 580 s. With `CC[C@H](NC(=O)c1c(C)c(-c2ccccc2)nc2ccccc12)c1ccccc1` the RP-LC retention time was 1060 s. Work on `Cc1ccc(-c2ncc3c(=O)n(CC(=O)NC4CCCCCC4)c(=O)n(C)c3n2)cc1` yielded an RP-LC retention time of 1080 s. In the case of `CC(NC(=O)Cc1cccn1-c1ccc(Cl)cc1)c1cccnc1` (configuration not stated), the RP-LC retention time is reported as 649 s. Compound `O=C1NC2(CCN(C(=O)Nc3ccc(F)cc3)CC2)Oc2ccccc21` has an RP-LC retention time of 742 s. Compound `COc1ccc(CN2N=C(C(=O)N3CCCC3)S(=O)(=O)c3ccccc32)cc1F` has an RP-LC retention time of 725 s. `O=C(Cn1cccc1-c1nc(-c2ccc3c(c2)OCO3)no1)Nc1ccc2c(c1)CCC2` gave an RP-LC retention time of 1140 s. For `COc1cccc(CNC(=O)CCc2c(-c3ccc(Br)cc3)nc3ccccn23)c1`, the RP-LC retention time was 698 s. In the case of `Cn1c(=O)n(C)c2cc(CNCCc3ccc(S(N)(=O)=O)cc3)ccc21`, the RP-LC retention time is reported as 538 s. `Cn1nccc1-c1cccc(-c2noc(-c3cccc(NC(=O)c4ccco4)c3)n2)c1` showed an RP-LC retention time of 991 s. With `Cn1nnc2cc(C(=O)NCc3ccc4c(c3)OCO4)ccc21` the RP-LC retention time was 686 s. With `O=C(CC1COc2ccccc2NC1=O)Nc1ccc(F)c(Cl)c1` (configuration not stated) the RP-LC retention time was 788 s. With `CCOc1ccc2ncc(C#N)c(Nc3cc(OC)c(OC)c(OC)c3)c2c1` the RP-LC retention time was 607 s. Work on `CC(C)(C)c1cc(C(=O)NCc2cccs2)nc2ccnn12` yielded an RP-LC retention time of 1110 s. Work on `O=C(NC1CCCc2ccccc21)C1CCN(Cc2noc(-c3ccc(F)cc3)n2)CC1` (configuration not stated) yielded an RP-LC retention time of 713 s. In the case of `Cc1cc(C)cc(NC(=O)C2CCN(c3nccnc3Sc3cccc(C)c3)CC2)c1`, the RP-LC retention time is reported as 1150 s. `Cc1cc(C)cc(Nc2nc(C)cc(=O)n2CC(=O)Nc2cccc(C#N)c2)c1` showed an RP-LC retention time of 811 s. `CCCc1ccc(S(=O)(=O)N2CCC(C(=O)NCc3csc(-c4cccs4)n3)CC2)cc1` showed an RP-LC retention time of 1050 s. Work on `CCNC(=O)Nc1ccc(N2CCCCC2)nc1` yielded an RP-LC retention time of 561 s. Compound `Cc1cc(C)cc(NC(=O)Cc2nnc(-c3ccc4ncccc4c3)o2)c1` has an RP-LC retention time of 786 s. In the case of `Cc1cccc(CNC(=O)C2(C)Cn3cnc(C(=O)NC4CCCCC4)c3C(=O)N2C2CC2)c1` (configuration not stated), the RP-LC retention time is reported as 819 s. For `COc1ccc(S(=O)(=O)N(C)C2CCc3nn(CC4CC4)c(=O)n3CC2)cc1OC` (configuration not stated), the RP-LC retention time was 731 s. For `c1cnn(-c2ccc(-c3noc(C4CCC4)n3)cn2)c1`, the RP-LC retention time was 1090 s.

From the METLIN SMRT retention time set (Domingo-Almenara et al. 2019)
